Our source for the Ki values is US6664393B2 (priority 1999, dated 2003).

Where two headings read alike, the source gives them in different places.

One test deals with T1, human factor Xa (Homo sapiens, UniProt P00742).
T1 construct: purchased Enzyme Research Laboratories, Inc; South Bend, Ind
Kind of test: Factor Xa assay (chromogenic, substrate S-2765). It counts as biochemical. As to the method:
(§1) Purified enzymes are used in chromogenic assays.
(§2) Ki=IC50/{1+(substrate concentration/Km)}
The assay was performed by pre-incubating the compound of interest of formula I plus enzyme for 10 min. The assay was then initiated by adding substrate to obtain a final volume of 100 μl. The initial velocity of chromogenic substrate hydrolysis was measured by the change in absorbance at 405 nm using a Bio-tek Instruments kinetic plate reader (Ceres UV9OOHDi) at 25° C. during the linear portion of the time course (usually 1.5 min after addition of substrate).

Test [1] concerns the target T2, factor VIIa/tissue factor (Homo sapiens, UniProt P08709).
T2 construct: 25 μl human factor VIIa and TF (5 nM and 10 nM, respective final concentrations)
Kind of test: Factor VIIa assay (chromogenic, substrate S-2288). The format is biochemical. As to the method:
as §1, §2
Kinetic assays were conducted at 25° C. in half-area microtiter plates (Costar Corp., Cambridge, Mass.) using a kinetic plate reader (Molecular Devices Spectramax 250).

The mark [2] stands for this setting: inhibition constant for inhibition of factor Xa, 25° C., 0.5 nM enzyme, 140 μM substrate, read-out: Ki (FXa).
Setting [3] is: inhibition constant for inhibition of factor VIIa, 5 nM factor VIIa and 10 nM TF, 25° C., 500 μM substrate, read-out: Ki (FVIIa).

Broadly, the Ki is a measure of affinity in units of concentration, obtained from inhibition or displacement.

T2 sequence (P08709 61-212): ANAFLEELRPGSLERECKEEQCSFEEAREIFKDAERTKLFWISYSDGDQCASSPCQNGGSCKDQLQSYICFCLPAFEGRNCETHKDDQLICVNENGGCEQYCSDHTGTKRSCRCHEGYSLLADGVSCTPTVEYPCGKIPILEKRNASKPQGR
T2 sequence (P08709 213-466): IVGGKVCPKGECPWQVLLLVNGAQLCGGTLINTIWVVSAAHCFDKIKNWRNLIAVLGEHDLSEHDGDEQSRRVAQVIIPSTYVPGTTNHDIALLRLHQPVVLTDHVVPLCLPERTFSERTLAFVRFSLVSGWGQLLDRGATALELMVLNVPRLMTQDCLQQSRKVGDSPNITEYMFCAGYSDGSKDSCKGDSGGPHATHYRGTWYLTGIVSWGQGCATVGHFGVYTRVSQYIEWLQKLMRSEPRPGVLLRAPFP
T2 sequence (P13726 33-295, further chain): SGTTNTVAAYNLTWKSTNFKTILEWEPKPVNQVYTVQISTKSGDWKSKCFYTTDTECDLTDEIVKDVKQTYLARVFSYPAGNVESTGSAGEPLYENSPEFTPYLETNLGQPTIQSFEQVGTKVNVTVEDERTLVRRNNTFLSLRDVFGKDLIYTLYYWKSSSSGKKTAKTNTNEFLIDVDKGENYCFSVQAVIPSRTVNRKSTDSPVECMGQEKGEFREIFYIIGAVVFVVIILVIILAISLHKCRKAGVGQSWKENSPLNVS
T1 sequence (P00742 235-488 limits assumed): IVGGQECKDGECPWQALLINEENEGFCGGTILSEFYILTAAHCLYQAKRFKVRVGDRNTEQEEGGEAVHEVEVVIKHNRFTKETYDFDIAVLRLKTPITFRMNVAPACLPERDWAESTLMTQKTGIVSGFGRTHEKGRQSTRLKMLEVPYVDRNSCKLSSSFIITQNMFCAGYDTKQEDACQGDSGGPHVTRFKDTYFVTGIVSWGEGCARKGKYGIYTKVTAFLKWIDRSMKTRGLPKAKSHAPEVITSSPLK
T1 sequence (P00742 41-179 limits assumed): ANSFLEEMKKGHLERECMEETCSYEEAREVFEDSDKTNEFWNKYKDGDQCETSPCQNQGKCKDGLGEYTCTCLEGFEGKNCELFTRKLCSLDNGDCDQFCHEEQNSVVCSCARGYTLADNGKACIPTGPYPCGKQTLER

For the compound `CC(=O)Nc1ccc(C(=O)N[C@@H](CCCNC(=N)N)C(N)=O)cc1OCCc1ccc(Cl)cc1Cl` [Example 3, (S)-4-Acetylamino-N-(1-carbamoyl-4-guanidinobutyl)-3-[2-(2,4-dichlorophenyl)ethoxy]benzamide], the Ki at human factor Xa (setting [2]) came out at 670 nM.

For `N=C(N)NCCC[C@H](NC(=O)c1cc(O)c(Br)c(OCCc2ccc(Cl)cc2Cl)c1)C(=O)NCc1cccnc1` [Example 39, (S)-4-Bromo-3-[2-(2,4-dichlorophenyl)ethoxy]-N-{4-guanidino-1-[(pyridin-3-ylmethyl)carbamoyl]butyl}-5-hydroxybenzamide], the Ki is over 200000 nM in test [1] (setting [3]) and 445 nM on human factor Xa.

Regarding `Cc1c(O)cc(C(=O)N[C@@H](CCCNC(=N)N)C(N)=O)cc1OCCc1ccc(Cl)cc1Cl` [Example 6, (S)-N-(1-Carbamoyl-4-guanidinobutyl)-3-[2-(2,4-dichlorophenyl)ethoxy]-5-hydroxy-4-methylbenzamide], the Ki in test [1] (setting [3]) is 7500 nM; at human factor Xa it was 38 nM.

For the compound `N=C(N)NCCC[C@H](NC(=O)c1cc(O)c(Br)c(OCCc2ccc(Cl)cc2Cl)c1)C(N)=O` [Example 5, (S)-4-Bromo-N-(1-carbamoyl-4-guanidinobutyl)-3-[2-(2,4-dichlorophenyl)-ethoxy]-5-hydroxybenzamide], the inhibition constant (Ki) in test [1] (setting [3]) turned out to be 58000 nM; on human factor Xa, 18 nM.

Compound `N=C(N)NCCC[C@H](NC(=O)c1ccc([N+](=O)[O-])c(OCCc2ccc(Cl)cc2)c1)C(N)=O` [Example 11] registered a Ki on human factor Xa of 192 nM.

Turning to `Cc1cc(C)c(CCOc2cc(C(=O)N[C@@H](CCCNC(=N)N)C(N)=O)nc3ccccc23)c(C)c1` [Example 32], the Ki (in test [1]; at human factor Xa) was 13000 nM each time.

As to `N=C(N)NCCC[C@H](NC(=O)c1cc(OCCc2ccc(Cl)cc2Cl)c2ccccc2n1)C(N)=O` [Example 34], the Ki in test [1] (setting [3]) worked out at 9800 nM; on human factor Xa, 750 nM.

As for `CN(C)C(=O)[C@H](CCCNC(=N)N)NC(=O)c1cc(O)c(Br)c(OCCc2ccc(Cl)cc2Cl)c1` [Example 45], the Ki was over 200000 nM in test [1] (setting [3]) and 31 nM on human factor Xa.

`N=C(N)NCCC[C@H](NC(=O)c1cc(O)c(Br)c(OCCc2ccc(Cl)cc2Cl)c1)C(=O)O` [Example 46]: the Ki was over 200000 nM in test [1] (setting [3]) and 59 nM at human factor Xa.

Turning to `N=C(N)NCCC[C@H](NC(=O)c1ccc(N)c(OCCc2ccc(Cl)cc2Cl)c1)C(N)=O` [Example 2, (S)-4-Amino-N-(-carbamoyl-4-guanidinobutyl)-3-[2-(2,4-dichlorophenyl)ethoxy]benzamide], the Ki on human factor Xa (setting [2]) is 76 nM.

Take `CCCOC(=O)[C@H](CCCNC(=N)N)NC(=O)c1ccc(OC)c(OCCc2ccc(Cl)cc2Cl)c1` [Example 50]: the Ki in test [1] (setting [3]) was over 200000 nM; at human factor Xa it was 729 nM.

As to `N=C(N)NCCC[C@H](NC(=O)c1ccc([N+](=O)[O-])c(OCCc2ccc(Cl)cc2Cl)c1)C(N)=O` [Example 1, (S)-4-Nitro-N-(1-carbamoyl-4-guanidinobutyl)-3-[2-(2,4-dichlorophenyl)ethoxy]benzamide], the figures for the Ki (in test [1] (setting [3]); on human factor Xa) were 188000 nM and 48 nM, respectively.

Compound `N=C(N)NCCC[C@H](NC(=O)c1cccc(OCCc2ccc(Cl)cc2)c1)C(N)=O` [Example 8] had a Ki on human factor Xa of 1100 nM.

Take `COc1ccc(C(=O)N[C@@H](CCCNC(=N)N)C(=O)N(C)C)cc1OCCc1ccc(Cl)cc1Cl` [Example 48]: the Ki in test [1] (setting [3]) was over 200000 nM; at human factor Xa, 560 nM.

Turning to `CCCOC(=O)[C@H](CCCNC(=N)N)NC(=O)c1cc(O)c(Br)c(OCCc2ccc(Cl)cc2Cl)c1` [Example 47], the Ki is over 200000 nM in test [1] (setting [3]) and 21 nM at human factor Xa.

With `N=C(N)NCCC[C@H](NC(=O)c1ccc(NC(=O)CCC(=O)O)c(OCCc2ccc(Cl)cc2Cl)c1)C(N)=O` [Example 4, (S)-N-{4-(1-Carbamoyl-4-guanidinobutylcarbamoyl)-2-[2-(2,4-dichlorophenyl)ethoxy]phenyl}succinamic Acid], the Ki in test [1] (setting [3]) is 42000 nM; on human factor Xa it was 354 nM.

`Cc1ccc(CCOc2cccc(C(=O)N[C@@H](CCCNC(=N)N)C(N)=O)c2)cc1` [Example 16]: the Ki on human factor Xa turned out to be 6150 nM.
